# According to patent US6150335A, “Tic-containing opioid dipeptide derivatives useful as analgesics” (Astra AB, priority 1996, dated 2000):
# How the values were obtained:
# δ opioid receptor = biological target: T1, δ opioid receptor (Rattus norvegicus, UniProt P33533); test: δ opioid receptor binding assay, displacement of [3H]DSLET from rat brain membranes; conditions: for Ki: rat brain membranes, [3H]DSLET 1.0 nM, Cheng-Prusoff; for Ki^μ/Ki^δ: δ versus μ receptor selectivity
# T1 construct: Male Sprague-Dawley rats (300-350 g) from the Canadian Breeding Laboratories were decapitated and after removal of the cerebellum the brains were homogenized; from tissue; host or cells: rat brain (without cerebellum) membranes, male Sprague-Dawley
# Description: (§1) μ and δ opioid receptor binding constants (Ki^μ,Ki^δ) of the compounds were determrined by displacement of relatively selective μ and δ radioligands from binding sites in rat brain membrane preparations calculated from the measured IC50 values on the basis of the equation by Cheng and Prusoff, (Y. C. Cheng and W. H. Prusoff Biochem. Pharmnacol. 22, 3099-3102 (1973)).
# The μ-, δ- and κ-opioid receptor affinities of all new analogs were determined in binding assays based on displacement of μ-, δ- and κ-selective radioligands from rat brain membrane binding sites. In the case of κ-ligands guinea pig brain homogenates were used, since the relative proportion of κ-binding sites is higher in guinea pig brain than in rat brain. The experimental procedure being used in our laboratory represents a modified version of the binding assay described by Pasternak et al. (Mol. Pharnacol. 11, 340-351 (1975)). Male Sprague-Dawley rats (300-350 g) from the Canadian Breeding Laboratories were decapitated and after removal of the cerebellum the brains were homogenized in 30 volumes of ice-cold standard buffer (50 mnM Tris HCl , pH 7.7). After centrifugation at 30,000×g for 30 min at 4° C. the membranes were reconstituted in the original volume of standard buffer and incubated for 30 min at 37° C. (to release bound endogenous ligands). Subsequent centrifugation and resuspension of the pellet in the initial volume of fresh standard buffer yielded the final membrane suspension. Aliquots (2 ml) of the membrane preparations were incubated for 1-2 h at 25° C. with 1 ml standard buffer containing the peptide to be tested and one of the following radioligands at the final concentration indicated: [^3 H]DAMGO, μ-selective, 0.7 nM; […]; and [^3 H]U69,563, κ-selective, 0.5 nM. The incubation was terminated by filtration through Whatman GF/B filters under vacuum at 4° C. Following two washings with 5 ml portions of ice-cold standard buffer the filters were transferred to scintillation vials and treated with 1 ml Protosol (New England Nuclear) for 30 min prior to addition of 0.5 ml acetic acid and 10 ml Aquasol (New England Nuclear). After shaking for 30 min the vials were counted at an efficiency of 40-45%. All experiments were performed in duplicate and repeated at least three times. Specific binding of each of the three radioligands was defined by performing incubations in the presence of cold DAMGO, DSLET and U69,563, respectively, at a concentration of 1 micromolar. Values of half-maximal inhibition (IC50) of specific binding were obtained graphically from semilogarithmic plots. From the measured IC50-values, binding inhibition constants (Ki) were calculated based on Cheng and Prusoff's equation (Biochem. Pharmacol. 22, 3099-3102 (1973)). Ratios of the Ki -values determined in the μ-, δ- and κ-representative binding assays are a measure of the receptor selectivity of the compound under investigation (e.g. Ki^μ /Ki^μ indicates the selectivity for δ-receptors versus μ-receptors).
# guinea pig ileum (GPI) = test: Guinea pig ileum (GPI) bioassay: inhibition of electrically evoked contractions; assay type: cell-based; conditions: normalized with [Leu5]enkephalin standard, effect primarily μ-mediated
# Description: (§2) Bioassays based on inhibition of electrically evoked contractions of the mouse vas deferens (MVD) and of the guinea pig ileum (GPI) were performed. In the GPI assay the opioid effect is primarily mediated by μ opioid receptors, whereas in the MVD assay the inhibition of the contractions is mostly due to interaction with δ opioid receptors.
# (§3) The GPI and MVD bioassays were carried out as reported in P. W. Schiller et al., Biochem. Biophys. Res. Commun. 85, 1332-1338 (1978) and J. DiMaio et al., J. Med. Chem. 25, 1432-1438 (1982). A log-dose response curve was determined with [Leu^5 ]enkephalin as standard for each ileum and vas preparation, and IC50 values of the compounds being tested were normalized according to A. A. Waterfield et al., Eur. J. Pharmacol. 58, 11-18 (1979).
# μ opioid receptor = biological target: T2, μ opioid receptor (Rattus norvegicus, UniProt P33535); test: μ opioid receptor binding assay, displacement of [3H]DAMGO from rat brain membranes; conditions: [3H]DAMGO 0.7 nM, Cheng-Prusoff
# T2 construct: Male Sprague-Dawley rats (300-350 g) from the Canadian Breeding Laboratories were decapitated and after removal of the cerebellum the brains were homogenized; from tissue; host or cells: rat brain (without cerebellum) membranes, male Sprague-Dawley
# Description: as §1
# The μ-, δ- and κ-opioid receptor affinities of all new analogs were determined in binding assays based on displacement of μ-, δ- and κ-selective radioligands from rat brain membrane binding sites. In the case of κ-ligands guinea pig brain homogenates were used, since the relative proportion of κ-binding sites is higher in guinea pig brain than in rat brain. The experimental procedure being used in our laboratory represents a modified version of the binding assay described by Pasternak et al. (Mol. Pharnacol. 11, 340-351 (1975)). Male Sprague-Dawley rats (300-350 g) from the Canadian Breeding Laboratories were decapitated and after removal of the cerebellum the brains were homogenized in 30 volumes of ice-cold standard buffer (50 mnM Tris HCl , pH 7.7). After centrifugation at 30,000×g for 30 min at 4° C. the membranes were reconstituted in the original volume of standard buffer and incubated for 30 min at 37° C. (to release bound endogenous ligands). Subsequent centrifugation and resuspension of the pellet in the initial volume of fresh standard buffer yielded the final membrane suspension. Aliquots (2 ml) of the membrane preparations were incubated for 1-2 h at 25° C. with 1 ml standard buffer containing the peptide to be tested and one of the following radioligands at the final concentration indicated: [^3 H]DAMGO, μ-selective, 0.7 nM; [^3 H]DSLET, […] nM; and [^3 H]U69,563, κ-selective, 0.5 nM. The incubation was terminated by filtration through Whatman GF/B filters under vacuum at 4° C. Following two washings with 5 ml portions of ice-cold standard buffer the filters were transferred to scintillation vials and treated with 1 ml Protosol (New England Nuclear) for 30 min prior to addition of 0.5 ml acetic acid and 10 ml Aquasol (New England Nuclear). After shaking for 30 min the vials were counted at an efficiency of 40-45%. All experiments were performed in duplicate and repeated at least three times. Specific binding of each of the three radioligands was defined by performing incubations in the presence of cold DAMGO, DSLET and U69,563, respectively, at a concentration of 1 micromolar. Values of half-maximal inhibition (IC50) of specific binding were obtained graphically from semilogarithmic plots. From the measured IC50-values, binding inhibition constants (Ki) were calculated based on Cheng and Prusoff's equation (Biochem. Pharmacol. 22, 3099-3102 (1973)). Ratios of the Ki -values determined in the μ-, δ- and κ-representative binding assays are a measure of the receptor selectivity of the compound under investigation (e.g. Ki^μ /Ki^μ indicates the selectivity for δ-receptors versus μ-receptors).
# mouse vas deferens (MVD) = test: Mouse vas deferens (MVD) bioassay: inhibition of electrically evoked contractions; assay type: cell-based; conditions: for IC50 / MVD IC50: inhibition of electrically evoked contractions, normalized with [Leu5]enkephalin standard, effect mostly δ-mediated; for GPI/MVD IC50 ratio: ratio of GPI IC50 to MVD IC50; for δ opioid agonist character (full / partial): conclusion from MVD and GPI assays
# Description: as §2, §3
# T2 sequence (P33535 whole entry): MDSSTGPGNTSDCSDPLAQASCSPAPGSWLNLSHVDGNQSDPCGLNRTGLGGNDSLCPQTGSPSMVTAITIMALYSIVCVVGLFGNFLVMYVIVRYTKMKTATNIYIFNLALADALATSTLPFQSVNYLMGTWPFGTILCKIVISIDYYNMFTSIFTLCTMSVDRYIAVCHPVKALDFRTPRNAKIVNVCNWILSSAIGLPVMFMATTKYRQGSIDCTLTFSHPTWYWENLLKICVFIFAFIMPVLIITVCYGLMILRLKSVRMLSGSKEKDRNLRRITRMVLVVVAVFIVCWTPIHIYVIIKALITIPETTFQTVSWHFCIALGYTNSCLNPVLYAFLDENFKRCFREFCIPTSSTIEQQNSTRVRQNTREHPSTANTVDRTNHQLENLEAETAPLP
# T1 sequence (P33533 whole entry): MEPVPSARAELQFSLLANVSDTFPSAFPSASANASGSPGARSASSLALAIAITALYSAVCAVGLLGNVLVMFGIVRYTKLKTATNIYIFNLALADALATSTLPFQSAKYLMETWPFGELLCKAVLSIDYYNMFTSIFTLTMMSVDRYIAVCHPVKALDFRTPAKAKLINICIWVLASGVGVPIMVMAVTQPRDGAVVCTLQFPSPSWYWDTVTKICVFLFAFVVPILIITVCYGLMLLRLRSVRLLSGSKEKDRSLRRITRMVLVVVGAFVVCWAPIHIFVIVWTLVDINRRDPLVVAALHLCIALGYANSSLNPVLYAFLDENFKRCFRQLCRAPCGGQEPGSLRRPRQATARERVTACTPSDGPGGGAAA
Compound,Ki (δ opioid receptor),Ki^μ/Ki^δ (δ opioid receptor),IC50 (guinea pig ileum (GPI)),Ki (μ opioid receptor),IC50 (mouse vas deferens (MVD)),GPI/MVD IC50 ratio (mouse vas deferens (MVD)),δ opioid agonist character (full / partial) (mouse vas deferens (MVD)),MVD IC50 (mouse vas deferens (MVD)),GPI IC50 (guinea pig ileum (GPI))
"CCOC(=O)C(CNC(=O)[C@@H]1Cc2ccccc2CN1C(=O)[C@@H](N)Cc1ccc(O)cc1)c1ccccc1 (single isomer, unassigned) [Example 15]",0.569 ± 0.08 nM,1560,> 10000 nM,886 ± 172 nM,1.28 ± 0.18 nM,>7810,,,
"CCOC(=O)C(CNC(=O)[C@@H]1Cc2ccccc2CN1C(=O)[C@@H](N)Cc1ccc(O)cc1)c1ccccc1 (single isomer, unassigned) [Example 16]",3.03 ± 0.66 nM,50.5,> 10000 nM,153 ± 5 nM,8.64 ± 1.31 nM,>1160,,,
"NC(=O)C(CNC(=O)[C@@H]1Cc2ccccc2CN1C(=O)[C@@H](N)Cc1ccc(O)cc1)c1ccccc1 (single isomer, unassigned) [Example 17]",21.5 ± 4.2 nM,3.43,2140 ± 470 nM,73.7 ± 0.6 nM,34 ± 2.9 nM,62.9,,,
"NC(=O)C(CNC(=O)[C@@H]1Cc2ccccc2CN1C(=O)[C@@H](N)Cc1ccc(O)cc1)c1ccccc1 (single isomer, unassigned) [Example 18]",22.8 ± 2.5 nM,8.38,> 10000 nM,191 ± 19 nM,,,partial δ agonists,partial agonist,
"NC(Cc1ccc(O)cc1)C(=O)N1Cc2ccccc2CC1C(=O)NC1CC1c1ccccc1 (single isomer, unassigned) [Example 21]",4.13 ± 0.27 nM,9.20,1600 ± 500 nM,38 ± 11.2 nM,,,partial δ agonists,partial agonist,
"NC(Cc1ccc(O)cc1)C(=O)N1Cc2ccccc2CC1C(=O)NC1CC1c1ccccc1 (single isomer, unassigned) [Example 22]",1.36 ± 0.15 nM,8.46,518 ± 147 nM,11.5 ± 1.1 nM,7.31 ± 2.3 nM,70.9,,,
"N[C@@H](Cc1ccc(O)cc1)C(=O)N1Cc2ccccc2C[C@H]1C(=O)NCC(CO)c1ccccc1 (single isomer, unassigned) [Example 27]",1.26 ± 0.11 nM,55.8,526 ± 51 nM,70.3 ± 2.3 nM,13.6 ± 2.2 nM,38.7,,,
"N[C@@H](Cc1ccc(O)cc1)C(=O)N1Cc2ccccc2C[C@H]1C(=O)NCC(CO)c1ccccc1 (single isomer, unassigned) [Example 28]",7.8 ± 2.8 nM,31.0,> 10000 nM,242 ± 20 nM,92.6 ± 6 nM,> 108,,,
"CCOC(=O)C(CNC(=O)[C@@H]1Cc2ccccc2CN1C(=O)[C@@H](N)Cc1ccc(O)cc1C)c1ccccc1 (single isomer, unassigned) [Example 30]",1.63 ± 0.27 nM,101,826 ± 183 nM,164 ± 11 nM,1.62 ± 0.12 nM,510,,,
"CCOC(=O)C(CNC(=O)[C@@H]1Cc2ccccc2CN1C(=O)[C@@H](N)Cc1ccc(O)cc1C)c1ccccc1 (single isomer, unassigned) [Example 31]",1.22 ± 0.04 nM,65.3,869 ± 209 nM,79.7 ± 2.3 nM,2.24 ± 0.33 nM,388,,,
"NC(Cc1ccc(O)cc1)C(=O)N1Cc2ccccc2CC1C(=O)NCC(c1ccccc1)c1ccccc1 (stereo not drawn) [Example 1, H-Tyr-Tic-NH--CH2 --CH--(Ph)2]",0.981 ± 0.038 nM,29.4,3630 ± 470 nM,28.8 ± 4.2 nM,3.77 ± 1.05 nM,963,,,
N[C@@H](Cc1ccc(O)cc1)C(=O)N1Cc2ccccc2C[C@H]1C(=O)NCCc1ccccc1Br [Example 5],1.24 ± 0.27 nM,18.8,613 ± 26 nM,23.3 ± 7.7 nM,13.9 ± 1.9 nM,44.1,,,
Cc1ccccc1CCNC(=O)[C@@H]1Cc2ccccc2CN1C(=O)[C@@H](N)Cc1ccc(O)cc1 [Example 6],1.75 ± 0.1 nM,22.1,759 ± 152 nM,38.7 ± 8.9 nM,10.1 ± 1.2 nM,75.1,,,
N[C@@H](Cc1ccc(O)cc1)C(=O)N1Cc2ccccc2C[C@H]1C(=O)NCCc1ccccc1-c1ccccc1 [Example 7],4.76 ± 1.7 nM,15.4,> 10000 nM,73.5 ± 7.1 nM,418 ± 55 nM,> 23.9,,,
"N[C@@H](Cc1ccc(O)cc1)C(=O)N1Cc2ccccc2C[C@H]1C(=O)N[C@H]1CCc2ccccc2C1 [Example 19, H-Tyr-Tic-2-S-At (At = aminotetralin)]",4.55 nM,12.3,1710 ± 230 nM,55.8 ± 6.3 nM,38.1 nM,44.9,,,
"N[C@@H](Cc1ccc(O)cc1)C(=O)N1Cc2ccccc2C[C@H]1C(=O)N[C@@H]1CCc2ccccc2C1 [Example 20, H-Tyr-Tic-2-R-At (At = aminotetralin)]",1.72 ± 0.17 nM,15.3,,26.3 ± 2.3 nM,36.3 ± 3.58 nM,,,,partial
N[C@@H](Cc1ccc(O)cc1)C(=O)N1Cc2ccccc2C[C@H]1C(=O)NCC(C1CCCCC1)C1CCCCC1 [Example 23],11.3 ± 3.3 nM,4.64,1580 ± 610 nM,52.4 ± 2.5 nM,21.5 ± 6.8 nM,73.5,,,
